Experimental data as given in patent US20240252437A1, “Methods For and Products From Encapsulation of Drugs in Nanoparticles in a Microgravity Environment” (Aphios Corporation, priority 2021, published 2024).

Columns and labels:
α-secretase = test: HEK-293e cell model for APP processing: sAPP-α release by alkaline phosphatase absorbance at 620 nm (Earth); format: cell-based, human; settings: for release of sAPP-α (increase in absorbance at 620 nm): HEK-293e cells stimulated for 24 h at 10^−8M, n=3
Procedure: The HEK-293e cell line was optimized for studying α-secretase in vitro.
HEK-293e cells are grown to confluency in T75 dishes in DMEM (Dulbecco's Modified Eagle Medium) and 10% FCS (Fetal Calf Serum) with 2 mM L-glutamine and pen-strepamphotericin. Supplements are needed to maintain plasmid expression: (1) Hygromycin stock solution=100× solution=4 mg/mL, final concentration=40 μg/mL (50 mg/12.5 mL makes 4 mg/mL); (2) Puromycin stock solution=100× solution=30 μg/mL stock, final concentration=0.3 μg/mL. Wait for 24-48 hours. All studies used phenol Red Free DMEM medium with 2% FCS. This must be heated to 65° C. for 30 minutes to inactivate endogenous alkaline phosphatase and cooled prior to making up test solutions.
For test solutions, remove 10% FCS growth medium and replace with 1 mL phenol red free DMEM medium+2% FCS per tube (various drug concentrations and control), and freeze cells in cryotubes. Thaw cryotubes and then: (1) Incubate cells at 37° C. for different time points; (2) Centrifuge tube at 1×g for 5 minutes and refreeze tubes to isolate culture supernatants; (3) Thaw tubes and transfer supernatants to new tube: (4) Make up substrate—Phos Blue (KPL Cat #50-88-00) according to manufacturer's instructions; (5) Transfer 100 µL of each sample and add 100 μL of substrate to 96 well plates; (6) Read immediately—record absorbance at 620 nm; and (7) Reacts quickly so record absorbance every 15 minutes for 60 minutes.
After freezing Bryosomes™, HEK-293e cells and cell culture media at −80 °C and thawing after 1, 3, 6 and 16 hours, the samples were analyzed for α-secretase production (FIG. 3). […] Thus, the concentration of 10^−8 M Bryosomes™ after mixing was targeted for the Space mission.

PKC-ε = biological target: T1, PKC-ε (Homo sapiens, UniProt Q02156); settings: in vitro studies (Yi et al., 2012); cited from earlier work
T1 sequence (Q02156 1-737): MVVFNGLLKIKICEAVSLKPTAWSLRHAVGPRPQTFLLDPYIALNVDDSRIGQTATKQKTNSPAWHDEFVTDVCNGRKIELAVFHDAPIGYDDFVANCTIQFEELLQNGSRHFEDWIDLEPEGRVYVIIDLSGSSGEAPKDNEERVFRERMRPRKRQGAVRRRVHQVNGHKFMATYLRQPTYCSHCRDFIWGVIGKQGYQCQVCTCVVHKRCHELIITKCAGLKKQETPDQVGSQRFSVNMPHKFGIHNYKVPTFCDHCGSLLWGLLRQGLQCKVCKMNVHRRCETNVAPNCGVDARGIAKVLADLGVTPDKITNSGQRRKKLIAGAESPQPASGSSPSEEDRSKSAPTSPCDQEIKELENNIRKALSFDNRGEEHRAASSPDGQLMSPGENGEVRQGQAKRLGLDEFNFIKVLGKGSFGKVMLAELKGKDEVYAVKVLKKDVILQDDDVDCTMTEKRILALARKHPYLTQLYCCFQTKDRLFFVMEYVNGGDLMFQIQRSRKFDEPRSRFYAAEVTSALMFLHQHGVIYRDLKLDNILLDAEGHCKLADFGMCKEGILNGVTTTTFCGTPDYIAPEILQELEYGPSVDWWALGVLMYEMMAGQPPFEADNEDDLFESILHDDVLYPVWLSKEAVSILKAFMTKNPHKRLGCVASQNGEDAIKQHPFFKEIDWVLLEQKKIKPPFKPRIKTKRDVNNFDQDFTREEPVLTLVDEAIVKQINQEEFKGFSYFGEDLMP

AD-transgenic mice = settings: intranasally-active and orally active (Schrott et al., 2015); cited from earlier work

## CCC/C=C/C=C/C(=O)O[C@H]1/C(=C/C(=O)OC)C[C@H]2C[C@H]([C@@H](C)O)OC(=O)C[C@H](O)C[C@@H]3C[C@H](OC(C)=O)C(C)(C)[C@](O)(C[C@@H]4C/C(=C/C(=O)OC)C[C@H](/C=C/C(C)(C)[C@]1(O)O2)O4)O3 [Bryostatin-1]
α-secretase
  release of sAPP-α (increase in absorbance at 620 nm): significantly increased
α-secretase; listed as Bryostatin-I
  release of sAPP-α (increase in absorbance at 620 nm): strongly induces
α-secretase; HEK-293e cells, concentrations lower than 10^−8M
  release of sAPP-α: do not affect release
PKC-ε
  activation of PKC-ε isoform: activate
AD-transgenic mice
  cognitive performance: rapidly restores cognitive performance
